According to publication PMC9237094, “Efficient transdermal delivery of functional protein cargoes by a hydrophobic peptide MTD 1067” (Scientific Reports, 2022):
Where a SMILES comes first, the peptide text is derived from it. [ ]: non-standard residue; d: D form.

Columns and labels:
[1] = test system: fibroblast cell line NIH 3T3; test: Cell proliferation activity, NIH 3T3 cells (MTT); type: cell-based, mouse; conditions: 48 h, absorbance 570 nm, triplicates of at least two independent experiments
Method: The cell proliferation activity of PDGF-BB and MTD-PDGF-BB was measured using NIH 3T3 cells, which were cultured in DMEM medium supplemented with 10% Bovine Calf Serum (BCS; Hyclone, USA) in a 96-well plate at 5 × 10^3 cells/well for 24 h. 100 μL of the protein sample, serially diluted with serum-free DMEM medium, was added to each well and cultured at 37 °C for 48 h. After removing the cell culture medium, 100 μL of a mixed solution of 5 mg/mL MTT and serum-free DMEM at a ratio of 1:10 was added to each well. After 4 h of incubation in a CO2 incubator for 4 h, the reaction solution was removed, and 100 μL of DMSO was added to each well. Formazans were sufficiently dissolved in DMSO using a plate shaker to develop a purple color, which was measured at 570 nm using a microplate reader (Spectra Max, Molecular Devices, USA).

[2] = test system: artificial skin (EpiDermFT); test: Skin penetration in artificial skin model, confocal fluorescence intensity; type: in vitro ADME, human; conditions: FITC-labeled (GHRP-6, des(1-3)IGF-I forms) or rhodamine-labeled (PDGF-BB forms), 0.2 mg/mL, 40 μL, 24 h, 32 °C, 5% CO2, at least three images
Method: To evaluate skin permeability using confocal microscopy, des(1-3)IGF-I and MTD-des(1-3)IGF-I were labeled with fluorescein isothiocyanate (FITC), and PDGF-BB and MTD-PDGF-BB were labeled with rhodamine. The labeling reaction was carried out with the molar ratio of protein: FITC (or rhodamine) as 1:10 at 4 °C for 2 h. Excess FITC and rhodamine were removed using a PD-10 desalting column (GE Healthcare, USA). After adjusting the concentrations of FITC-labeled GHRP-6, MTD-GHRP-6, des(1-3)IGF-I, MTD-des(1-3)IGF-I, PDGF-BB, and MTD-PDGF-BB to 0.2 mg/mL, respectively, each labeled solution was applied to the artificial skin (EpiDermFT™, MatTek, USA). […] The fluorescence intensity per equivalent area of the dermal layer was calculated for each confocal image. Quantification analysis using fluorescence intensity was calculated based on the fluorescence intensity of confocal microscopy images. Three confocal microscopy images were obtained per each artificial skin, and the fluorescence intensity values were extracted from five areas of the same size per dermis layer in the microscopy images. The relative intensity was calculated by comparing the signals between the samples with and without MTD conjugation.

Row | Compound | ED50, cell proliferation [1] | Fluorescence intensity in the dermal layer (permeability) relative to the original cargo [2]
1 | PDGF-BB: recombinant human platelet-derived growth factor BB, dimeric protein | 0.042 µg/mL | –
2 | CSCC[C@H](NC(=O)[C@H](CCCNC(=N)N)NC(=O)[C@H](C)NC(=O)[C@H](C)NC(=O)[C@H](C)NC(=O)[C@@H]1CCCN1C(=O)[C@H](C)NC(=O)[C@@H](NC(=O)[C@H](C)NC(=O)[C@H](C)NC(=O)CNC(=O)CNC(=O)[C@H](CCCCN)NC(=O)[C@@H](Cc1ccccc1)NC(=O)[C@H](Cc1c[nH]c2ccccc12)NC(=O)[C@H](C)NC(=O)[C@@H](Cc1c[nH]c2ccccc12)NC(=O)[C@@H](N)Cc1c[nH]cn1)C(C)C)C(=O)O [MTD-GHRP-6] (H-H[dW]AW[dF]KGGAAVAPAAARM-OH) | – | approximately five
